This passage reports IC50 results from article PMC8889123 (International journal for parasitology, 2019).

The structures appear in SMILES notation.

In general, IC50 refers to the point on the concentration scale where inhibition reaches its midpoint. Lower therefore signals inhibition by little substance.

The target of the experiment is T1, Ser/Thr protein phosphatase 5 (PbPP5) (Plasmodium berghei, UniProt A0A509AMH5).
T1 sequence (A0A509AMH5 407-711): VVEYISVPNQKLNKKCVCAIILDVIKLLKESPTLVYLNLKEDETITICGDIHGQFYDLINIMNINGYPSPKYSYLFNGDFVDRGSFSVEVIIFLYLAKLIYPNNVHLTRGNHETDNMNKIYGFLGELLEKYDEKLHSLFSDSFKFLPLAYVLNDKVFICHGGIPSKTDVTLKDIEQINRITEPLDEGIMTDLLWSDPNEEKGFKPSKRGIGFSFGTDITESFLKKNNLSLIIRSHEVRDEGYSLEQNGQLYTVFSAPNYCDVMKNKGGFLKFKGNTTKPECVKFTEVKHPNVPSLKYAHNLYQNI
Type of experiment: biochemical.
For the compound `C=C1[C@@H](O)[C@@H]2O[C@]3(CC[C@H](/C=C/[C@@H](C)[C@@H]4CC(C)=C[C@@]5(O[C@H](C[C@@](C)(O)C(=O)O)CC[C@H]5O)O4)O3)CC[C@H]2O[C@@H]1[C@@H](O)C[C@H](C)[C@H]1O[C@@]2(CCCCO2)CC[C@H]1C` [okadaic acid], inhibition was half-maximal at 1.3 nM (IC50). That is a single-digit nanomolar value.
Compound `C[C@]1(C(=O)O)[C@@H]2CC[C@@H](O2)[C@@]1(C)C(=O)O` [cantharidic acid] had a half-maximal inhibitory concentration (IC50) of 122 nM.
Turning to `C[C@@]12C(=O)OC(=O)[C@]1(C)[C@H]1CC[C@@H]2O1` [cantharidin], inhibition was half-maximal at 74.3 nM (IC50).
`O=C(O)[C@@H]1[C@H](C(=O)O)[C@H]2CC[C@@H]1O2` [endothall] registered an IC50 of 365 nM.
